In US20170368082A1, “FORMULATIONS OF BRINCIDOFOVIR” (priority 2016, published 2017):
Read-outs that look alike come from different tables or passages of the source.

Assay: Phase 2 toxicokinetics of brincidofovir and cidofovir in plasma
Format: in vivo, Sprague-Dawley CD rats
Conditions: for Tmax: Sprague-Dawley CD, rat, plasma, iv, read-out: Median Tmax; for AUClast/Dose / Cmax/Dose / Tlast: brincidofovir in plasma, 1 mg/kg 2-hour IV infusion, Female rats
Protocol: Plasma samples (108) were collected 2 hours following the initiation of dosing on Day 1 and Day 7 (Group 1), or at 1, 2, 8, and 24 hours following the initiation of dosing on Day 1, and prior to administration and at 2, 8, and 24 hours following the initiation of dosing on Day 7 (Groups 2 and 3), and analyzed to determine the concentrations of brincidofovir and the metabolite, cidofovir), by LC/MS/MS.
Approximately 0.4 mL of whole blood was obtained via the tail vein from each animal at each time point. Animals were not fasted prior to blood collection. Blood was collected into tubes containing K2EDTA anticoagulant and placed on wet ice in an upright position, per facility SOP prior to processing. Plasma was separated by centrifugation (10 minutes at approximately 2000 g, at approximately 2-8° C.). Approximately 0.10 mL of plasma was transferred into a single cryotube appropriately labeled with study number, animal number, time point, date of sampling and sample type. Remaining plasma was transferred into a second cryotube and retained as a backup sample. Plasma frozen at approximately −80±10° C. within approximately 2 hours after collection of each blood sample until analysis. Animals were euthanized (CO2 inhalation) after the final blood collection.
In general, TK parameters were estimated using mean plasma concentrations of brincidofovir and cidofovir derived from the composite blood sampling design using Phoenix WinNonLin (V 6.3).
A composite blood sampling design was used such that each rat was sampled twice per sampling day. Blood was collected via tail vein from unanesthetized animals into tubes containing anticoagulant and placed on wet ice in an upright position. Animals were not fasted prior to blood collection. Plasma was separated by centrifugation (for 10 minutes at approximately 2000 g, at approximately 2-8° C.), and transferred into individually labeled cryotubes. All cryotubes containing the collected plasma samples were appropriately labeled as to study number, animal number, time point, date of sampling and sample type. All plasma samples were obtained and frozen at approximately −80° C. (±10° C.) within approximately 2 hours after collection of each blood sample until analysis.
Rat plasma bioanalysis was conducted by Pyxant Laboratories. Plasma samples were analyzed for concentrations of brincidofovir and cidofovir using a method based upon protein precipitation extraction followed by LC-MS/MS analysis; calibration ranges for brincidofovir and cidofovir were 1.00-1500 ng/mL and 5.00-750 ng/mL, respectively, (Pyxant study number 3025) for a 50 μL aliquot of rat plasma. Sample analysis for ISR was not performed as part of this non-GLP study.
For the generation of Mean Profiles, all sample concentrations that were below the limit of quantitation (BLQ) were set to 0.
All pharmacokinetic parameter estimates were completed using a Non-Compartmental Model (Model 200-202 for IV infusion administration). The AUClast and AUCinf were calculated using the linear up log down trapezoidal rule.

[1] = brincidofovir 1 mg/kg, Male, Day 1, 1 h
[2] = brincidofovir 1 mg/kg, Male, Day 1, 2 h
[3] = brincidofovir 1 mg/kg, Male, Day 7, 0 h
[4] = brincidofovir 1 mg/kg, Male, Day 7, 2 h
[5] = brincidofovir 15 mg/kg, Female, Day 1, 1 h
[6] = brincidofovir 15 mg/kg, Female, Day 1, 2 h
[7] = brincidofovir 15 mg/kg, Female, Day 1, 8 h
[8] = brincidofovir 15 mg/kg, Female, Day 1, 24 h
[9] = brincidofovir 15 mg/kg, Female, Day 7, 0 h
[10] = brincidofovir 15 mg/kg, Female, Day 7, 2 h
[11] = brincidofovir 15 mg/kg, Female, Day 7, 8 h
[12] = brincidofovir 15 mg/kg, Female, Day 7, 24 h
[13] = brincidofovir 15 mg/kg, Male, Day 1, 1 h
[14] = brincidofovir 15 mg/kg, Male, Day 1, 2 h
[15] = brincidofovir 15 mg/kg, Male, Day 1, 8 h
[16] = brincidofovir 15 mg/kg, Male, Day 7, 0 h
[17] = brincidofovir 15 mg/kg, Male, Day 7, 2 h

Structure (SMILES): CCCCCCCCCCCCCCCCOCCCOP(=O)(O)CO[C@H](CO)Cn1ccc(N)nc1=O [Brincidofovir]
- Difference in Cmax between female and male (1 or 15 mg/kg, Days 1 and 7): ≤ 54%
- Tmax (1 mg/kg, single and twice weekly 1 mg/kg): 2 h
- Tmax (15 mg/kg, single 15 mg/kg): 1 h
- Tmax (15 mg/kg, twice weekly 15 mg/kg): 2 h
- brincidofovir Mean Concentration (MC) (brincidofovir 1 mg/kg, Female, Day 7, 24 h): 0.00 ng/mL
- brincidofovir Imputed Mean Concentration (IMC) [1]: 227 ng/mL
- brincidofovir Mean Concentration (MC) [1]: 227 ng/mL
- brincidofovir Imputed Mean Concentration (IMC) [2]: 235 ng/mL
- brincidofovir Mean Concentration (MC) [2]: 235 ng/mL
- brincidofovir Mean Concentration (MC) (brincidofovir 1 mg/kg, Male, Day 1, 8 h): 0.00 ng/mL
- brincidofovir Mean Concentration (MC) (brincidofovir 1 mg/kg, Male, Day 1, 24 h): 0.00 ng/mL
- brincidofovir Imputed Mean Concentration (IMC) [3]: 0.00 ng/mL
- brincidofovir Mean Concentration (MC) [3]: 0.00 ng/mL
- brincidofovir Imputed Mean Concentration (IMC) [4]: 208 ng/mL
- brincidofovir Mean Concentration (MC) [4]: 208 ng/mL
- brincidofovir Mean Concentration (MC) (brincidofovir 1 mg/kg, Male, Day 7, 8 h): 0.00 ng/mL
- brincidofovir Mean Concentration (MC) (brincidofovir 1 mg/kg, Male, Day 7, 24 h): 0.00 ng/mL
- brincidofovir Imputed Mean Concentration (IMC) [5]: 3470 ng/mL
- brincidofovir Mean Concentration (MC) [5]: 3470 ng/mL
- brincidofovir Imputed Mean Concentration (IMC) [6]: 2570 ng/mL
- brincidofovir Mean Concentration (MC) [6]: 2570 ng/mL
- brincidofovir Imputed Mean Concentration (IMC) [7]: 6.53 ng/mL
- brincidofovir Mean Concentration (MC) [7]: 6.53 ng/mL
- brincidofovir Imputed Mean Concentration (IMC) [8]: 2.02 ng/mL
- brincidofovir Mean Concentration (MC) [8]: 2.02 ng/mL
- brincidofovir Imputed Mean Concentration (IMC) [9]: 0.00 ng/mL
- brincidofovir Mean Concentration (MC) [9]: 0.00 ng/mL
- brincidofovir Imputed Mean Concentration (IMC) [10]: 1660 ng/mL
- brincidofovir Mean Concentration (MC) [10]: 1660 ng/mL
- brincidofovir Imputed Mean Concentration (IMC) [11]: 5.45 ng/mL
- brincidofovir Mean Concentration (MC) [11]: 5.45 ng/mL
- brincidofovir Imputed Mean Concentration (IMC) [12]: 0.790 ng/mL
- brincidofovir Mean Concentration (MC) [12]: 0.790 ng/mL
- brincidofovir Imputed Mean Concentration (IMC) [13]: 4370 ng/mL
- brincidofovir Mean Concentration (MC) [13]: 4370 ng/mL
- brincidofovir Imputed Mean Concentration (IMC) [14]: 2840 ng/mL
- brincidofovir Mean Concentration (MC) [14]: 2840 ng/mL
- brincidofovir Imputed Mean Concentration (IMC) [15]: 9.59 ng/mL
- brincidofovir Mean Concentration (MC) [15]: 9.59 ng/mL
- brincidofovir Imputed Mean Concentration (IMC) [16]: 0.00 ng/mL
- brincidofovir Mean Concentration (MC) [16]: 0.00 ng/mL
- brincidofovir Imputed Mean Concentration (IMC) [17]: 1910 ng/mL
- brincidofovir Mean Concentration (MC) [17]: 1910 ng/mL
- brincidofovir Mean Concentration (MC) (brincidofovir 15 mg/kg, Male, Day 7, 8 h): 8.72 ng/mL
- AUClast/Dose (Day 1): 459 (h*ng/mL)/(mg/kg)
- Cmax/Dose (Day 1): 191 (ng/mL)/(mg/kg)
- Tlast (Day 1): 8 h
- AUClast/Dose (Day 7): 244 (h*ng/mL)/(mg/kg)
- Cmax/Dose (Day 7): 95.4 (ng/mL)/(mg/kg)
- Tlast (Day 7): 8 h
